Earlier results in patent US11724007B2, “Operating room coating applicator and method” (Ethicon, Inc., priority 2018, dated 2023).

System: S. aureus
Settings: measured in a suitable growth medium; described by Bhargava, H. et al, American Journal of Infection Control, June 1996

## Oc1cc(Cl)ccc1Oc1ccc(Cl)cc1Cl [triclosan, 2,4,4′-trichloro-2′-hydroxydiphenyl ether]
  minimum inhibitory concentration (MIC) against S. aureus: 0.01 ppm
